Data on four compounds can be found in patent publication US12679878B2, “CRF2 receptor agonists and their use in therapy” (SANOFI, priority 2020, dated 2026).

In one data set the target is T1, CRF2R (Homo sapiens, UniProt Q13324).
T1 construct: expressed in transfected cells; host or cells: TeloHEAC
Description: EC50 [nM] CRF2R. From the text:
Table printed on a drawing sheet, Fig. 3
Head of the field: EC50 [nM] CRF2R
The patent's description of the figure: FIG. 3: Representative sequences from peptides according to the invention with an optimized stability profile, wherein K[sema] stands for K[gGlu-C(O)(CH2)14CH3]
First copying reader's note: Second half (positions 13-38, C-term and activity) of the first table; the rows follow the same order, so the four rows of Peptide Seq. 1 are Patent Sequence N° 130, 171, 172 and 173.
Where the first naming reader finds the target: head: EC50 [nM] CRF2R

Data set [1] is described as follows: Buffer solubility by LC-UV, pH 7.4 phosphate and pH 4.5 acetate (Example 19.11). It is filed as physicochemical. The conditions noted are these: target 10 mg/mL. The method, then: (§1) As for example 15 above, also the chemical stability of representative examples of these FA modified peptides has been assessed, using LC-UV instead of light scattering. Solubility and chemical stability were studied in 100 mM phosphate buffer (pH 7.4) and 100 mM acetate buffer (pH 4.5). Test compound powders were dissolved in both buffers at a target concentration of 10 mg/mL and incubated for 1 hour at room temperature. After centrifugation at 2500 rcf for 15 minutes, […] of supernatant was diluted with […] of the incubation buffer and analyzed by LC-UV (Acquity UPLC-DAD, Waters). Solubility was calculated by comparing the peak area of the test compound in the buffer sample with the peak area of the same compound dissolved at 0.5 mg/ml in water:acetonitrile 1:1, 0.1% formic acid.

Data set [2] can be described thus: Chemical stability as % loss by LC-UV, 28 days 40° C. vs 5° C. (Example 19.11). Format: physicochemical. The method, then:
as §1
From the centrifuged supernatant, two additional […] aliquots were collected and diluted with […] of incubation buffer. One aliquot was stored at 5° C., while the other was stored at 40° C. After 28 days, the samples were analyzed by LC-UV. Chemical stability was calculated as % loss using the following equations: • Chemical stability (as % loss)=[(purity after 28 days at 5° C.)−(purity after 28 days at 40° C.)]×100/(purity after 28 days at 5° C.) % purity=[(peak area compound)×100/(total peak area)]

For another data set, the target named is T2, human CRF2α receptor (Homo sapiens, UniProt Q13324).
T2 construct: expressed in transfected cells; host or cells: TeloHEAC
T2 sequence (Q13324 1-411): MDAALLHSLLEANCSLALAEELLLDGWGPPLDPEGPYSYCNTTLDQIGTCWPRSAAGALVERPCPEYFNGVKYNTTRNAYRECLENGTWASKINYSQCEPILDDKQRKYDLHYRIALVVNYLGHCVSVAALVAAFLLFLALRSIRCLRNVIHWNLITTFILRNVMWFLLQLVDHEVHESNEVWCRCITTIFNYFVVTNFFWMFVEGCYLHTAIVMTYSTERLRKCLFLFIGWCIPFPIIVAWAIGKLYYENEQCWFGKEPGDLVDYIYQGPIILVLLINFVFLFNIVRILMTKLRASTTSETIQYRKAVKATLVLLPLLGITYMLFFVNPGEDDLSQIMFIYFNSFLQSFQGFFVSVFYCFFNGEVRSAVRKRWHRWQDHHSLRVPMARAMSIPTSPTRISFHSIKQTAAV
Description: cAMP agonism at human CRF2α receptor in TeloHEAC cells, FA modified peptides (Example 19.9). As to conditions: 0% HSA, relative to urocortin 2. Format: cell-based. A digest of the protocol: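 Efficacy and EC50 are referenced to 100 nM urocortin 2 as 100%, with cAMP measured as the 665/620 nm HTRF ratio after 1 h at room temperature. Compounds (0.5 mM DMSO stock, 16 twofold dilutions) acted 30 min at 37 °C on CRF2α-expressing TeloHEAC cells, buffer containing IBMX and 0% or 0.2% HSA.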

A further data set deals with T3, CRF1R receptor (Homo sapiens, UniProt P34998).
T3 construct: host or cells: CHO-K1 clone 2
T3 sequence (P34998 24-415): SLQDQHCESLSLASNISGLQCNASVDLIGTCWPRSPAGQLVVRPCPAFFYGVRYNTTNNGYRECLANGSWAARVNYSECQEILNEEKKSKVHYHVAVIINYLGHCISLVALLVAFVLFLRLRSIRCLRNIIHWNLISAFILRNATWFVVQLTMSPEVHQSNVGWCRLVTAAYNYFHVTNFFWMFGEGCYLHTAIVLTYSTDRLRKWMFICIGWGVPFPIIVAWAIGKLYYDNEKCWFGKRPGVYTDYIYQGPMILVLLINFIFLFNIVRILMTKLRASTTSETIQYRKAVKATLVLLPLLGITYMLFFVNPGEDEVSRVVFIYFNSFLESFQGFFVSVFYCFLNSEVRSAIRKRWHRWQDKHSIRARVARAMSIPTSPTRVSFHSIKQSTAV
Put plainly: cAMP activity at anti-target CRF1R, CHO-K1 cell line clone 2 (Example 19.10). Format: cell-based. The conditions noted are these: ratio of CRF1 EC50 to CRF2 EC50. A digest of the protocol:
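The cAMP read-out used the same protocol as the previous assay, except that Sauvagine at 100 nM set the 100% activation control. Cells were CHO-K1 clone 2 overexpressing CRF1R, cultured in F12 medium with 10% FBS and G418 and stored frozen until use.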

Values after ≈ are worked out from the molar mass of the structure shown. Starred links: 1 amine or outer side, 2 acyl side, 3 side chain; linkers in the order of their positions; H or OH if unused. Non-standard residues stand in square brackets, D forms with d. Residues, ends and D or L forms follow the SMILES beside them. Groups on a side chain read outwards from the residue. *: point of attachment. C16 diacid = O=C(O)CCCCCCCCCCCCCCC(=O)*; γGlu = O=C(O)[C@H](CCC(=O)[*:2])N[*:1]; Palmitoyl = CCCCCCCCCCCCCCCC(=O)*; Aib = CC(C)(N)C(=O)O

As for `CCCCCCCCCCCCCCCC(=O)N[C@@H](CCC(=O)NCCCC[C@H](NC(=O)[C@H](CC(C)C)NC(=O)[C@H](CCCCN)NC(=O)[C@@H](NC(=O)[C@@H]1CCCN1C(=O)[C@@H](NC(=O)[C@H](CC(=O)O)NC(=O)[C@H](CC(C)C)NC(=O)[C@H](CO)NC(=O)[C@H](CC(C)C)NC(=O)[C@@H](NC(=O)[C@@H](N)[C@@H](C)CC)C(C)C)C(C)C)[C@@H](C)CC)C(=O)N[C@@H](CCCCN)C(=O)N[C@H](C(=O)N[C@@H](CC(C)C)C(=O)N[C@@H](CC(C)C)C(=O)N[C@@H](CCC(=O)O)C(=O)N[C@@H](CCC(N)=O)C(=O)N[C@@H](CCC(=O)O)C(=O)N[C@@H](CCCCN)C(=O)N[C@@H](CCC(N)=O)C(=O)N[C@@H](CCC(=O)O)C(=O)N[C@@H](CCCCN)C(=O)N[C@@H](CCC(=O)O)C(=O)N[C@@H](CCCCN)C(=O)N[C@@H](CCC(N)=O)C(=O)N[C@@H](CCC(N)=O)C(=O)N[C@@H](C)C(=O)N[C@@H](CCC(=O)O)C(=O)N[C@H](C(=O)N[C@@H](CC(N)=O)C(=O)N[C@@H](C)C(=O)N[C@@H](CCC(N)=O)C(=O)N[C@H](C(=O)N[C@@H](CC(C)C)C(=O)N[C@@H](C)C(=O)N[C@@H](CCC(N)=O)C(=O)N[C@H](C(N)=O)C(C)C)[C@@H](C)CC)[C@@H](C)O)[C@@H](C)CC)C(=O)O` [SEQ ID NO: 2] (H-IVLSLDVPIKLK([γGlu-Palmitoyl])KILLEQEKQEKEKQQAETNAQILAQV-NH2), the response on CRF2R was half-maximal at 0.07 nM (EC50).
Same read-out and setting: the figure for `CCCCCCCCCCCCCCCC(=O)N[C@@H](CCC(=O)NCCCC[C@H](NC(=O)[C@H](CC(C)C)NC(=O)[C@H](CCCCN)NC(=O)[C@@H](NC(=O)[C@@H]1CCCN1C(=O)[C@@H](NC(=O)[C@H](CC(=O)O)NC(=O)[C@H](CC(C)C)NC(=O)[C@H](CO)NC(=O)[C@H](CC(C)C)NC(=O)[C@@H](NC(=O)[C@@H](N)[C@@H](C)CC)C(C)C)C(C)C)[C@@H](C)CC)C(=O)N[C@@H](CCCCN)C(=O)N[C@H](C(=O)N[C@@H](CC(C)C)C(=O)N[C@@H](CC(C)C)C(=O)N[C@@H](CCC(=O)O)C(=O)N[C@@H](CCC(N)=O)C(=O)N[C@@H](CCC(=O)O)C(=O)N[C@@H](CCCCN)C(=O)N[C@@H](CCC(N)=O)C(=O)N[C@@H](CCC(=O)O)C(=O)N[C@@H](CCCCN)C(=O)N[C@@H](CCC(=O)O)C(=O)N[C@@H](CCCCN)C(=O)N[C@@H](CCC(N)=O)C(=O)N[C@@H](CCC(N)=O)C(=O)N[C@@H](C)C(=O)N[C@@H](CCC(=O)O)C(=O)N[C@@H](CCCCN)C(=O)N[C@@H](CC(N)=O)C(=O)N[C@@H](C)C(=O)N[C@@H](CCC(N)=O)C(=O)N[C@H](C(=O)N[C@@H](CC(C)C)C(=O)N[C@@H](C)C(=O)N[C@@H](CCC(N)=O)C(=O)N[C@H](C(N)=O)C(C)C)[C@@H](C)CC)[C@@H](C)CC)C(=O)O` [SEQ ID NO: 3] (H-IVLSLDVPIKLK([γGlu-Palmitoyl])KILLEQEKQEKEKQQAEKNAQILAQV-NH2) is 0.04 nM; for `CCCCCCCCCCCCCCCC(=O)N[C@@H](CCC(=O)NCCCC[C@H](NC(=O)[C@H](CC(C)C)NC(=O)CNC(=O)[C@@H](NC(=O)[C@@H]1CCCN1C(=O)[C@@H](NC(=O)[C@H](CC(=O)O)NC(=O)[C@H](CC(C)C)NC(=O)[C@H](CO)NC(=O)[C@H](CC(C)C)NC(=O)[C@@H](NC(=O)[C@@H](N)[C@@H](C)CC)C(C)C)C(C)C)[C@@H](C)CC)C(=O)N[C@@H](CCC(N)=O)C(=O)N[C@@H](CCCCN)C(=O)N[C@@H](CC(C)C)C(=O)N[C@@H](CC(C)C)C(=O)N[C@@H](CCCCN)C(=O)N[C@@H](CCC(N)=O)C(=O)N[C@@H](CCC(=O)O)C(=O)N[C@@H](CCCCN)C(=O)N[C@@H](CCC(N)=O)C(=O)N[C@@H](CCC(=O)O)C(=O)N[C@@H](CCCCN)C(=O)N[C@@H](CCC(=O)O)C(=O)N[C@@H](CCCCN)C(=O)N[C@@H](CCC(N)=O)C(=O)N[C@@H](CCC(N)=O)C(=O)N[C@@H](C)C(=O)N[C@@H](CCC(=O)O)C(=O)N[C@H](C(=O)N[C@@H](CC(N)=O)C(=O)N[C@@H](C)C(=O)N[C@@H](CCCCN)C(=O)N[C@H](C(=O)N[C@@H](CC(C)C)C(=O)N[C@@H](C)C(=O)N[C@@H](CCC(N)=O)C(=O)N[C@H](C(N)=O)C(C)C)[C@@H](C)CC)[C@@H](C)O)C(=O)O` [SEQ ID NO: 4] (H-IVLSLDVPIGLK([γGlu-Palmitoyl])QKLLKQEKQEKEKQQAETNAKILAQV-NH2) it is 0.05 nM.
`CC[C@H](C)[C@H](N)C(=O)N[C@H](C(=O)N[C@@H](CC(C)C)C(=O)N[C@@H](CO)C(=O)N[C@@H](CC(C)C)C(=O)N[C@@H](CC(=O)O)C(=O)N[C@@H](C(=O)N1CCC[C@H]1C(=O)N[C@H](C(=O)N[C@@H](CCCCN)C(=O)N[C@@H](CC(C)C)C(=O)N[C@@H](CCCCNC(=O)CC[C@H](NC(=O)CCCCCCCCCCCCCCC(=O)O)C(=O)O)C(=O)N[C@@H](CCC(N)=O)C(=O)N[C@H](C(=O)N[C@@H](CC(C)C)C(=O)N[C@@H](CC(C)C)C(=O)N[C@@H](CCCCN)C(=O)N[C@@H](CCC(N)=O)C(=O)N[C@@H](CCC(=O)O)C(=O)N[C@@H](CCCNC(=N)N)C(=O)N[C@@H](CCC(N)=O)C(=O)N[C@@H](CCCCN)C(=O)NC(C)(C)C(=O)N[C@@H](CCC(N)=O)C(=O)N[C@@H](CCCNC(=N)N)C(=O)N[C@@H](CCC(N)=O)C(=O)N[C@@H](CCC(N)=O)C(=O)N[C@@H](C)C(=O)N[C@@H](CCC(=O)O)C(=O)N[C@@H](CCCCN)C(=O)N[C@@H](CC(N)=O)C(=O)N[C@@H](CCCCN)C(=O)N[C@@H](CCC(N)=O)C(=O)N[C@H](C(=O)N[C@@H](CC(C)C)C(=O)N[C@@H](C)C(=O)N[C@@H](CCC(N)=O)C(=O)N[C@H](C(N)=O)C(C)C)[C@@H](C)CC)[C@@H](C)CC)[C@@H](C)CC)C(C)C)C(C)C` [compound 188] (H-IVLSLD[dV]PIKLK([γGlu-C16 diacid])QILLKQERQK[Aib]QRQQAEKNKQILAQV-NH2; N-terminus assumed): the solubility (commonly the concentration that dissolves in the medium under given conditions) at 1 h in data set [1] (pH 4.5, 100 mM acetate buffer) came to 8300 µg/mL (≈ 1710 µM); in data set [1] (pH 7.4, 100 mM phosphate buffer), 7900 µg/mL (≈ 1630 µM). Further, the “% loss (chemical stability)” value in data set [2] (pH 4.5) is 0%; in data set [2] (pH 7.4) it was 40%. Also, at human CRF2α receptor, the EC50 – broadly, the concentration needed to bring the measured effect to its halfway point – was 0.46 nM. Also, the CRF1/CRF2 ratio at CRF1R receptor was 134.
